Consider three compounds from US20030124159A1, “Enhancing epidermal barrier development in skin” (Unilever Home & Personal Care USA, Division of Conopco, Inc, priority 2001, published 2003).

Assay [1] concerns the target T1, human LXR (Homo sapiens, UniProt Q13133).
T1 construct: expressed in transfected cells; host or cells: cos-7 cells (ECACC No. 87021302)
T1 sequence (Q13133 1-447): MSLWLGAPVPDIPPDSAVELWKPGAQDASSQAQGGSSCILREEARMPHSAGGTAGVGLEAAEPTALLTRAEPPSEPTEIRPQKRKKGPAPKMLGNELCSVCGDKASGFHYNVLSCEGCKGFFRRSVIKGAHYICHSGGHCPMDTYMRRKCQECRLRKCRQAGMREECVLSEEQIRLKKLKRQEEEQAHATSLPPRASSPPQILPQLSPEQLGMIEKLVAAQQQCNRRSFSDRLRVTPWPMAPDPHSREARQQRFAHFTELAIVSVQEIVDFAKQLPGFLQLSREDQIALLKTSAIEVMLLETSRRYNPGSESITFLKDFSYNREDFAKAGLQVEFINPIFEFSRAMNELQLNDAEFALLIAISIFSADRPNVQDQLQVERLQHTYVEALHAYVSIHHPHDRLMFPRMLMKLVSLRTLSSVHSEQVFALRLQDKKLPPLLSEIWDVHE
T1 sequence (P19793 1-462 partner): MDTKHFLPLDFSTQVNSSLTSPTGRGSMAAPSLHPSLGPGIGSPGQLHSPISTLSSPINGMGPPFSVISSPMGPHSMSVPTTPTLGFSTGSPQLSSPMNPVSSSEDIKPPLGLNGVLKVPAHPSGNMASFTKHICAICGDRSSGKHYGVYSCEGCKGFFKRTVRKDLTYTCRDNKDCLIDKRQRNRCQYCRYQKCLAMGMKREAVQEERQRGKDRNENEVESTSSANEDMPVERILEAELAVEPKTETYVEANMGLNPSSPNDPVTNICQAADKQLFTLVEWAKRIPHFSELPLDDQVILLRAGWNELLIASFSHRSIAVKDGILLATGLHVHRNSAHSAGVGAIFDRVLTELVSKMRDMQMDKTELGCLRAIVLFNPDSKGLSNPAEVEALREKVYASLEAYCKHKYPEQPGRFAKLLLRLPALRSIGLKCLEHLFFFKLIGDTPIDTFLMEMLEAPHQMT
As to the kind of experiment: Reporter gene assay for activation of LXRα in transfected cos-7 cells. It counts as cell-based. Here is the method:
The activation of LXRα has been determined by a reporter gene assay based on that described by Kliewer et al (Nature 358 771-774 1992). Wherein cos-7 cells (ECACC No. 87021302) were seeded in 24-well plates at a density of 5×10^4 cells/well. Cells were grown overnight at 37° C./5% CO2 in DMEM containing 10% FCS, 2mM L-glutamine, […] penicillin and 100 µg/ml streptomycin.
A commerically available vector-pNFκB-Luc (Clontech) was used as the basic reporter plasmid as it contained the firefly luciferase gene downstream of the thymidine kinase promoter element. The NFκB consensus sequence was exised using restriction enzymes Mlu I and Bgl II and replaced with 3 direct repeats of the DNA response element sequence for the LXR nuclear receptor.
The response element was taken from Willy, P. et al (1995)(from a promoter region of the mouse mammary tumour virus), and repeated three times and encorporated restriction enzyme sites for Mlu I and Bgl II at either end to orientate the fragment during cloning (FIG. 5). This long oligonucleotide was synthesised, and an annealing primer designed to allow production of a double-stranded DNA template by Klenow fill-in.
This dsDNA template along with the vector pNFκB-Luc were then cut with both Mlu I and Bgl II restriction enzymes to allow cloning of the insert into this vector. ligation of the insert and vector occurred, followed by heat-shock transformation into a E. coli strain (JM109) followed by selection of recombinants on LB agar+Ampicillin (100 μg/ml). Mini liquid cultures of each colony generated were established and mini-plasmid preparations done (Qiagen protocols followed), furthered by restriction digests to check the size of the recombinant insert.
The pRSV/hRXRα was prepared via the method of Collingwood T N et al. 1997. J Biol Chem. 272: 13060-5. Transformation was performed as described above, and bulk plasmid preparations were performed from 100 ml overnight cultures. The selectable antibiotic for this vector was 100 μg/ml Ampicilin.
Transfection of cells was performed using Lipofectamine (Gibco Brl) as directed by the manufactures. Transfected cells were incubated for 5 h at 37° C./5% CO2 and serum then added to a final concentration of 2%. Cells were then incubated for a further 24 hours in the presence or absence of ligand. After 24 hours cell lysates were prepared and the level of firefly and renilla luciferase determined using the Dual luciferase assay system (Promega) and a MLX microtitre plate luminometer (Dynex).
Cells were washed with transfection media (DMEM) then transiently transfected with 4 plasmids: a LXR-responsive firefly luciferase reporter gene (pLXRE-luc); mammalian expression plasmids (pcDNA3.1/LXR, and pRSV/hRXRα) containing human LXR and RXRα cDNAs respectively and a control plasmid (pRLTK, Promega) which constitutatively expresses the renilla luciferase gene.
Transfected cells were incubated for 5 h at 37°C./5% CO2 and serum then added to a final concentration of 2%. Cells were then incubated for further 24 hours in the presence or absence of ligand. After 24 hours cell lysates were prepared and the level of firefly and renilla luciferase determined using the Dual luciferase assay system (Promega) and a MLX microtitre plate luminometer (Dynex). The level of firefly luciferase (normalised against the renilla luciferase control) provides a measure of reporter gene activity. This in turn reflects the level of LXR activation
The level of firefly luciferase (normalised against the renilla luciferase control) provides a measure of reporter gene activity which in turn reflects the level of LXRα activation.
A general note: Reporter assays use an easily measured gene product as a stand-in for the process of interest.

In assay [2] the test system is filaggrin. As to the kind of experiment: RNA expression analysis of filaggrin in human epidermal cultures (Integriderm array). It counts as cell-based. Here is the method: Commercially available human epidermal cultures were obtained from Skin Ethic™. The cultures were incubated in DMEM supplemented with guggul sterone (conctri) or vehicle alone (X % ethanol) for X days. Medium was replaced every day.
RNA was then extracted from cultures using the Qaigen RNEasy™ minikit according to manufacturers' instructions. The RNA was than DNAse treated and quantified by measuring OD at 260 & 280 nm with a spectrophotometer.
The level of gene expression was then determined using the Integridenm array from Research Genetics. RNA expression in guggul sterone treated cultures was compared to that in cultures treated with vehicle alone according to manufacturers' instructions broadly detailed below.
To prehybridise, each membrane was placed in a seperate roller bottle with the DNA spotted side facing inwards 5.0 ml MicroHyb (Research Genetics #HYB125.GF) was added to each bottle as well as the blocking agents;
20 ul mastermix was added to each tube containing RNA and oligo dT, and the reaction incubated at […] 42° C. for 90 mins. Bio-Spin 6 columns (Bio-Rad #732-6002) were then used to remove unincorporated nucleotides according to the manufacturer's instructions.
The cDNA was denatured by heating to 99° C. for 3 mins and chilled on ice for 2 mins. Hybridisation was carried out at 42° C. for 16-20 hrs in a rotating oven.
Membranes were washed 4× with ˜30 ml wash 1 solution (2× SSC, 1% SDS) at 50° C. for 20 mins/wash in rotating oven. This was followed by 2 further washes in ˜30 ml wash 2 solution (0.5× SSC, 1% SDS) at 50° C. for 15 mins/wash in a rotating oven.
Images of the membranes were obtained using a phosphorimager (Molecular Dynamics) using a pixel size of 100 u during the scanning. Images were converted to “TIF” files to allow analysis using Pathways™2.01 software (Research Genetics) and spot intensities compared to indicate changes in RNA expression. Each array contains 3 separate spots of filaggrin DNA and the average of all 3 spot intensities was calculated for each array. […]

For the compound `CC(C)CC[C@@H](O)[C@@H](C)[C@H]1CC[C@H]2[C@@H]3CC=C4C[C@@H](O)CC[C@]4(C)[C@H]3CC[C@]12C` [22R-hydroxycholesterol, reference compound], the “Reporter Gene Activity Foloinduction relative to vertical Mean” value in assay [1] (32 μM, positive control in desmosterol experiment) was found to be 4.8; in assay [1] (35 μM, positive control in cis-guggal sterone experiment), 6; in assay [1] (50 μM, positive control in cis-guggal sterone experiment) it was 6.59.
`C/C=C1\C(=O)C[C@H]2[C@@H]3CCC4=CC(=O)CC[C@]4(C)[C@H]3CC[C@]12C` [Cis-guggal Sterone]: the “Reporter Gene Activity Foloinduction relative to vertical Mean” value came to 3.9 in assay [1] (16 μM, cos-7 cells, 24 hours with ligand, firefly luciferase normalised against renilla); 8 in assay [1] (32 μM, cos-7 cells, 24 hours with ligand, firefly luciferase normalised against renilla); 17.3 in assay [1] (64 μM, cos-7 cells, 24 hours with ligand, firefly luciferase normalised against renilla). Moreover, the “Spot intensity (filaggrin)” value in assay [2] (human epidermal cultures, average of 3 filaggrin spots, normalised against average intensity of all spots) came out at 2885. Further, the “Changes in the expression relative to vehicle (filaggrin)” value in assay [2] (human epidermal cultures, relative to vehicle) is listed as 1.54 (+/−0.17). The “filaggrin mRNA levels (in words)” value in assay [2] (treatment of epidermal cultures) is reported as “elevation of filaggrin mRNA levels”.
Turning to `CC(C)=CCC[C@@H](C)[C@H]1CC[C@H]2[C@@H]3CC=C4C[C@@H](O)CC[C@]4(C)[C@H]3CC[C@]12C` [Desmosterol, cholesta-5,24-dien-3β-ol], in assay [1] (26 μM, cos-7 cells, 24 hours with ligand, firefly luciferase normalised against renilla), the “Reporter Gene Activity Foloinduction relative to vertical Mean” value was 9.27.
